Earlier results in US20100055177A1, “MODIFIED RELEASE COMPOSITION OF LEVETIRACETAM AND PROCESS FOR THE PREPARATION THEREOF” (priority 2008, published 2010).

CC[C@@H](C(N)=O)N1CCCC1=O [levetiracetam, (−)-(S)-(alpha)-ethyl-2-oxo-1-pyrrolidine acetamide]
water solubility: about 1.04 g/ml
